# From patent US11040954B1, “CXCR3 receptor agonists” (RECEPTOS LLC, priority 2016, dated 2021)
# Target: T1, CXCR3 (Homo sapiens, UniProt P49682)
# T1 construct: host or cells: CHO-K1 (cAMP Hunter CHOK1 CXCR3 Gi cell line)
# T1 sequence (P49682 1-368): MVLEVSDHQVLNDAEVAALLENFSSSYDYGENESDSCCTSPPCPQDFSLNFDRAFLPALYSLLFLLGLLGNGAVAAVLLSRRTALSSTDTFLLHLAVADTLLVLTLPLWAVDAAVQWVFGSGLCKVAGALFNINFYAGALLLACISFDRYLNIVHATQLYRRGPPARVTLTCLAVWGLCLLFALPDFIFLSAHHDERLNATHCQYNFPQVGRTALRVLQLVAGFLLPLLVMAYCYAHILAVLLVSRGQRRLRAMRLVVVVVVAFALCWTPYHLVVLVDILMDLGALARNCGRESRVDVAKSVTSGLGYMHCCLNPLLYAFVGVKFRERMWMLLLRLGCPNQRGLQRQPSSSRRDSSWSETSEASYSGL
# Assay: CXCR3 cAMP agonist assay (cAMP Hunter CHOK1 CXCR3 Gi cell line, forskolin-stimulated, HitHunter cAMP detection)
# Type: cell-based
# Details: cAMP Hunter CHOK1 CXCR3 Gi cells, 20 μM forskolin, 30 minutes; read-out: Activity (CXCR3 cAMP agonist assay compound EC50)
# Summary of the method: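 Agonist activity was measured as suppression of forskolin (20 μM)-induced cAMP, read by luminescent enzyme-fragment complementation with a cAMP standard curve and CXCL11 defining full efficacy. Assay used 50,000 CXCR3 Gi CHOK1 cells/well in pH 7.4 HEPES-buffered HBSS with 0.1% BSA, compound 0-10 μM over 12 points, 30 min incubation.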
row,Structure (SMILES),EC50
1,NCC[C@H](NC(=O)[C@@H]1Cc2ccccc2CN1C(=O)CCC(=O)c1ccccc1)C(=O)Nc1ccc(C(F)(F)F)c(F)c1 [Compound 2-11],250 to 500 nM
2,Cc1cc(NC(=O)[C@H](Cc2cncn2C)NC(=O)[C@@H]2Cc3ccccc3CN2C(=O)CCC(=O)c2ccccc2)ccc1Cl [Compound 5-2],50 to 250 nM
3,NCC[C@H](NC(=O)[C@@H]1Cc2ccccc2CN1C(=O)CCC(=O)c1ccccc1)C(=O)Nc1ccc2cccnc2c1 [Compound 2-45],250 to 500 nM
4,Cc1cc(NC(=O)[C@H](CCN(C(C)C)C(C)C)NC(=O)[C@@H]2Cc3ccccc3CN2C(=O)CCC(=O)c2ccccc2)ccc1Cl [Compound 3-7],< 50 nM
5,Cc1c(Cl)ccc(NC(=O)C2(NC(=O)[C@@H]3Cc4ccccc4CN3C(=O)CCC(=O)c3ccccc3)CCNCC2)c1C [Compound 11-4],50 to 250 nM
6,NCC[C@H](NC(=O)[C@@H]1Cc2ccccc2CN1C(=O)CCC(=O)c1ccccc1)C(=O)Nc1ccc(Cl)cc1Cl [Compound 2-52],50 to 250 nM
7,CCc1cc(Cl)c(Cl)cc1NC(=O)[C@H](CCN)NC(=O)[C@@H]1Cc2ccccc2CN1C(=O)CCC(=O)c1ccccc1 [Compound 2-30],50 to 250 nM
8,Cc1cc(NC(=O)[C@H](CCCC[N+](C)(C)C)NC(=O)[C@@H]2Cc3ccccc3CN2C(=O)CCC(=O)c2ccccc2)ccc1Cl [Compound 6-3],50 to 250 nM
9,CCc1ccc(NC(=O)[C@H](CCN)NC(=O)[C@@H]2Cc3ccccc3CN2C(=O)CCC(=O)c2ccccc2)c(F)c1 [Compound 2-56],250 to 500 nM
10,NCC[C@H](NC(=O)[C@@H]1Cc2ccccc2CN1C(=O)CCC(=O)c1ccccc1)C(=O)Nc1ccc2ncccc2c1 [Compound 2-43],50 to 250 nM
11,NCCCC[C@H](NC(=O)[C@@H]1Cc2ccccc2CN1C(=O)CCC(=O)c1ccccc1)C(=O)Nc1cc(Cl)cc(Cl)c1 [Compound 1-17],50 to 250 nM
12,NCC[C@H](NC(=O)[C@@H]1Cc2ccccc2CN1C(=O)CCC(=O)c1ccccc1)C(=O)Nc1cc2c(cc1O)CCC2 [Compound 2-74],50 to 250 nM
13,NCC[C@H](NC(=O)[C@@H]1Cc2ccccc2CN1C(=O)CCC(=O)c1ccccc1)C(=O)NC1CCc2ccccc2C1 (some centres unmarked) [Compound 2-81],50 to 250 nM
14,NCC[C@H](NC(=O)[C@@H]1Cc2ccccc2CN1C(=O)CCC(=O)N1CCCC12CCC2)C(=O)Nc1ccc2c(c1)CCC2 [Compound 10-6],< 50 nM
15,Cc1cc(NC(=O)[C@H](CCN)NC(=O)[C@@H]2Cc3ccccc3CN2C(=O)CCC(=O)c2ccccc2)cc(C)c1Cl [Compound 2-39],< 50 nM

# More lines, now with the values ahead:
row,EC50,Structure (SMILES)
1,< 50 nM,Cc1cc(NC(=O)[C@H](CCN)NC(=O)[C@@H]2Cc3ccccc3CN2C(=O)CCC(=O)N2CCC3(CC3)C2)ccc1Cl [Compound 12-69]
2,50 to 250 nM,"Cc1cc(NC(=O)[C@H](CCN)NC(=O)[C@@H]2Cc3ccccc3CN2C(=O)CCC(=O)N2C[C@@H](C)O[C@@H](C)C2)ccc1Cl [Compound 12-1, (S)—N—((S)-4-amino-1-((4-chloro-3-methylphenyl)amino)-1-oxobutan-2-yl)-2-(4-((2R,6S)-2,6-dimethylmorpholino)-4-oxobutanoyl)-1,2,3,4-tetrahydroisoquinoline-3-carboxamide]"
3,50 to 250 nM,Cc1cc(NC(=O)[C@H](CCN)NC(=O)[C@@H]2Cc3ccccc3CN2C(=O)CCC(=O)N2CCS(=O)(=O)CC2)ccc1Cl [Compound 12-17]
4,50 to 250 nM,Cc1cc(NC(=O)[C@H](CCN)NC(=O)[C@@H]2Cc3ccccc3CN2C(=O)CCC(=O)N2CCC(O)CC2)ccc1Cl [Compound 12-6]
5,250 to 500 nM,NCC[C@H](NC(=O)[C@@H]1Cc2ccccc2CN1C(=O)CCC(=O)c1ccccc1)C(=O)Nc1ccccc1C(F)(F)F [Compound 14-15]
6,50 to 250 nM,COC[C@@H]1CCCN1C(=O)CCC(=O)N1Cc2ccccc2C[C@H]1C(=O)N[C@@H](CCN)C(=O)Nc1ccc(Cl)c(C)c1 [Compound 12-134]
7,< 50 nM,CC1CN(C(=O)CCC(=O)N2Cc3ccccc3C[C@H]2C(=O)N[C@@H](CCN)C(=O)Nc2ccc(Cl)c(Cl)c2F)CCN1C (some centres unmarked) [Compound 15-5]
8,< 50 nM,Cc1cc(NC(=O)[C@H](CCN)NC(=O)[C@@H]2Cc3ccccc3CN2C(=O)CCC(=O)N2CCC[C@H]2c2ccccc2)ccc1Cl [Compound 12-147]
9,50 to 250 nM,CN1CCN(CC[C@H](NC(=O)[C@@H]2Cc3ccccc3CN2C(=O)CCC(=O)c2ccccc2)C(=O)Nc2ccc3c(c2)CCC3)CC1 [Compound 24-2]
10,250 to 500 nM,Cc1cc(NC(=O)[C@H](CCN)NC(=O)[C@@H]2Cc3ccccc3CN2C(=O)CCC(=O)NC2CC2(F)F)ccc1Cl (some centres unmarked) [Compound 12-82]
11,50 to 250 nM,CN(C(=O)CCC(=O)N1Cc2ccccc2C[C@H]1C(=O)N[C@@H](CCN)C(=O)Nc1ccc(Cl)c(Cl)c1F)C(C)(C)C [Compound 15-53]
12,< 50 nM,NCC[C@H](NC(=O)[C@@H]1Cc2ccccc2CN1C(=O)CCC(=O)c1ccccc1)C(=O)Nc1cc(Cl)c(Cl)c(Cl)c1 [Compound 14-4]
13,> 500 nM,COc1c(NC(=O)[C@H](CCN)NC(=O)[C@@H]2Cc3ccccc3CN2C(=O)CCC(=O)c2ccccc2)ccc(Cl)c1Cl [Compound 14-27]
14,< 50 nM,Cc1cc(NC(=O)[C@H](CCN)NC(=O)[C@@H]2Cc3ccccc3CN2C(=O)CCC(=O)N2CCCC3(CCC3)C2)ccc1Cl [Compound 12-78]
15,50 to 250 nM,Cc1cc(NC(=O)[C@H](CCN)NC(=O)[C@@H]2Cc3ccccc3CN2C(=O)CCC(=O)N2CC(N(C)C)C2)ccc1Cl [Compound 12-133]
16,250 to 500 nM,"NCC[C@H](NC(=O)[C@@H]1Cc2ccccc2CN1C(=O)CCC(=O)c1ccccc1)C(=O)Nc1cc(F)ccc1Cl [Compound 14-1, (S)—N—((S)-4-amino-1-((2-chloro-5-fluorophenyl)amino)-1-oxobutan-2-yl)-2-(4-oxo-4-phenylbutanoyl)-1,2,3,4-tetrahydroisoquinoline-3-carboxamide]"
17,50 to 250 nM,Cc1cc(NC(=O)[C@H](CCN2CCC(O)CC2)NC(=O)[C@@H]2Cc3ccccc3CN2C(=O)CCC(=O)c2ccccc2)c(F)cc1Cl (racemic) [Compound 25-2]
18,< 50 nM,NCC[C@H](NC(=O)[C@@H]1Cc2ccccc2CN1C(=O)CCC(=O)N1CCC2(CC2)C1)C(=O)Nc1ccc(Cl)c(Cl)c1F [Compound 15-46]

row,EC50,Structure (SMILES)
1,< 50 nM,Cc1cc(NC(=O)[C@H](CCN)NC(=O)[C@@H]2Cc3ccccc3CN2C(=O)CCC(=O)N2CCN(C)C(C)(C)C2)ccc1Cl [Compound 12-131]
2,< 50 nM,CC(C)C1CCCN1C(=O)CCC(=O)N1Cc2ccccc2C[C@H]1C(=O)N[C@@H](CCN)C(=O)Nc1ccc(Cl)c(Cl)c1F (some centres unmarked) [Compound 15-10]
3,50 to 250 nM,Cc1cc(NC(=O)[C@H](CCN)NC(=O)[C@@H]2Cc3ccccc3CN2C(=O)CCC(=O)N2CCC[C@@H]2c2ccccc2)ccc1Cl [Compound 12-132]
4,< 50 nM,CC(C)(C)C1CCN(C(=O)CCC(=O)N2Cc3ccccc3C[C@H]2C(=O)N[C@@H](CCN)C(=O)Nc2ccc(Cl)c(Cl)c2F)C1 (some centres unmarked) [Compound 15-34]
5,< 50 nM,CC[C@@H]1CCN(C(=O)CCC(=O)N2Cc3ccccc3C[C@H]2C(=O)N[C@@H](CCN)C(=O)Nc2ccc(Cl)c(C)c2)C1 [Compound 12-154]
6,50 to 250 nM,Cc1cc(NC(=O)[C@H](CCN)NC(=O)[C@@H]2Cc3ccccc3CN2C(=O)CCC(=O)N2CCN(C)C(=O)C2)ccc1Cl [Compound 12-37]
7,50 to 250 nM,O=C(CCC(=O)N1Cc2ccccc2C[C@H]1C(=O)N[C@@H](CCN1CCC(F)(F)CC1)C(=O)Nc1ccc(Cl)c(Cl)c1F)c1ccccc1 [Compound 23-2]
8,< 50 nM,O=C(NC1(C(=O)Nc2ccc(Cl)c(Cl)c2F)CCNCC1)[C@@H]1Cc2ccccc2CN1C(=O)CCC(=O)N1CCCC2(CCC2)C1 [Compound 12-128]
9,< 50 nM,"Cc1cc(NC(=O)[C@H](CCNC(=O)CN)NC(=O)[C@@H]2Cc3ccccc3CN2C(=O)CCC(=O)N2CCCCC2)ccc1Cl [Compound 31-1, (S)—N—((S)-4-(2-aminoacetamido)-1-((4-chloro-3-methylphenyl)amino)-1-oxobutan-2-yl)-2-(4-oxo-4-(piperidin-1-yl)butanoyl)-1,2,3,4-tetrahydroisoquinoline-3-carboxamide]"
10,< 50 nM,Cc1cc(NC(=O)[C@H](CCN)NC(=O)[C@@H]2Cc3ccccc3CN2C(=O)CCC(=O)N2CCN(C)CC2(C)C)ccc1Cl [Compound 12-103]
11,< 50 nM,CCC1CCCN(C(=O)CCC(=O)N2Cc3ccccc3C[C@H]2C(=O)N[C@@H](CCN)C(=O)Nc2ccc(Cl)c(C)c2)C1 (some centres unmarked) [Compound 12-120]
12,50 to 250 nM,CCN(CC)C(=O)CCC(=O)N1Cc2ccccc2C[C@H]1C(=O)N[C@@H](CCN)C(=O)Nc1ccc(Cl)c(C)c1 [Compound 12-14]
13,< 50 nM,CN(CCC(C)(C)C)C(=O)CCC(=O)N1Cc2ccccc2C[C@H]1C(=O)N[C@@H](CCN)C(=O)Nc1ccc(Cl)c(Cl)c1F [Compound 15-44]
14,< 50 nM,Cc1cc(NC(=O)[C@H](CCN)NC(=O)[C@@H]2Cc3ccccc3CN2C(=O)CCC(=O)N2CC(C(C)(C)O)C2)ccc1Cl [Compound 12-22]
15,250 to 500 nM,Cc1cc(NC(=O)[C@H](CCN)NC(=O)[C@@H]2Cc3ccccc3CN2C(=O)CCC(=O)N(C)CC(F)(F)F)ccc1Cl [Compound 12-119]
16,< 50 nM,Cc1cccc(NC(=O)[C@H](CCN)NC(=O)[C@@H]2Cc3ccccc3CN2C(=O)CCC(=O)c2ccccc2)c1Cl [Compound 14-6]
17,< 50 nM,NCC[C@H](NC(=O)[C@@H]1Cc2ccccc2CN1C(=O)CCC(=O)N1CCC2CCCCC21)C(=O)Nc1ccc(Cl)c(Cl)c1F (some centres unmarked) [Compound 15-38]
